Assay results as given in patent US11512069B2, “TLR7/8 antagonists and uses thereof” (Merck Patent GmbH, priority 2016, dated 2022).

biological target: T1, TLR7 (Homo sapiens, UniProt Q9NYK1); assay: HEK Cell Assay (TLR7/NFKb HEK reporter cells, Steady-Glo); format: cell-based; settings: compound 30 min, then R*48 agonist 5 hours, Steady-Glo readout, read-out: Potency
T1 construct: expressed in transfected cells; host or cells: HEK cells carrying TLR7 and an NF-kB reporter read with Steady-Glo
T1 sequence (Q9NYK1 27-1049): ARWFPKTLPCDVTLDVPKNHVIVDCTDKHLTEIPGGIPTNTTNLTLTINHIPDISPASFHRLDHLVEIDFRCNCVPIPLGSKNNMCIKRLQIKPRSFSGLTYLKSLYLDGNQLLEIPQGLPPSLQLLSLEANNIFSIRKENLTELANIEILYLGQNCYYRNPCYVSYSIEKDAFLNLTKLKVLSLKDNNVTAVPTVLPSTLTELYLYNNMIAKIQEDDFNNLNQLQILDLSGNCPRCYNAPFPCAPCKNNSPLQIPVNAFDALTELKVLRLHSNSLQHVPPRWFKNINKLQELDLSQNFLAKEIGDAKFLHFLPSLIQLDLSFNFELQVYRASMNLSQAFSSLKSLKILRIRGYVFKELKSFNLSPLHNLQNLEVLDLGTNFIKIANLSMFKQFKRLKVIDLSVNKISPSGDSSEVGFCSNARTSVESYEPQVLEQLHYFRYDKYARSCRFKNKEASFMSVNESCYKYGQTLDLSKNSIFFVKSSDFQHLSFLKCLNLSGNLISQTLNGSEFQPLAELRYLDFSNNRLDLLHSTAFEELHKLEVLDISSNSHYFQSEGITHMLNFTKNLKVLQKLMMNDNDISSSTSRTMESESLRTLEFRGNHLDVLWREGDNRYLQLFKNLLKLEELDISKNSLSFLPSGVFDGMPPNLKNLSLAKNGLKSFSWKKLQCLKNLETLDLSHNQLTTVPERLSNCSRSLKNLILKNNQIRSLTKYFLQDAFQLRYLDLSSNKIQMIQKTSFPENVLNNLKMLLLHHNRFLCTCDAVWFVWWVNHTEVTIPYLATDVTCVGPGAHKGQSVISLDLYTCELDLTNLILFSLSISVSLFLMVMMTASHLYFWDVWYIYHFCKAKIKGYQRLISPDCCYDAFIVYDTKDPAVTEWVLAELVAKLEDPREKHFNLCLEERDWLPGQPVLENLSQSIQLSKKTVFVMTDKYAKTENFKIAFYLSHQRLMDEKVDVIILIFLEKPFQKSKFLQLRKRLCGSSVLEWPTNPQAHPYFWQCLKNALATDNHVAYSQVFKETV
Procedure: Example 32: HEK Cell Assay
Into 384 CulturePlates (Corning 3707) was placed 5000 c/w of TLR7/NFKb HEK cells in 30 uL DMEM without Phenil red (gibco #31053) and 10% i.a. FCS and 2 mM L-ZGLutamin. The cells were incubated for 24 h at 37 degrees Celsius, 10% carbon dioxide and 90% relative humidity, 3 uL of controls, standards, and compounds were dispensed to wells, incubated for 30 min then 3 uL of R*48 agonist in 20 mM Hepes was added. After incubation for 5 hours, it was allowed to stand at room temperature for 15 min, 10 uL of Steady-Glo substrate reagent was added and shake assay plate for 5 min at 1500 rpm. The assay plate was allowed to sit for 30 min at room temperature and then read plate on EnVision.

SMILES | IC50
COCCN[C@@H]1C[C@H](C)C[C@@H](c2ccc(C(F)(F)F)c3ncccc23)C1 (racemic) [Compound 151, (1,trans-3,trans-5,cis)-N-(2-methoxyethyl)-3-methyl-5-(8-(trifluoromethyl)quinolin-5-yl)cyclohexanamine] | 1 to 20 µM
COCCN[C@@H]1C[C@H](C)C[C@H](c2ccc(F)c3nccnc23)C1 (racemic) [Compound 159, (cis-1,3,5)-3-(8-fluoroquinoxaline-5-yl)-N-(2-methoxyethyl)-5-methylcyclohexan-1-amine] | 1 to 20 µM
C[C@@H]1C[C@H](c2ccc(C(F)(F)F)c3ncccc23)CN(C)C1 (relative stereo) [Compound 5] | > 20 µM
C[C@@H]1C[C@@H](c2ccc(C(F)(F)F)c3ncccc23)CN(C)C1 (relative stereo) [Compound 6] | > 20 µM
C[C@@H]1C[C@H](c2ccc(C(F)(F)F)c3ncccc23)CN(CCO)C1 (relative stereo) [Compound 7] | > 20 µM
C[C@@H]1C[C@@H](c2ccc(C(F)(F)F)c3ncccc23)CN(CCO)C1 (relative stereo) [Compound 8] | > 20 µM
CC(=O)N1C[C@@H](C)C[C@H](c2ccc(C(F)(F)F)c3ncccc23)C1 (relative stereo) [Compound 9, trans-1-[3-Methyl-5-(8-trifluoromethyl-quinolin-5-yl)-piperidin-1-yl]-ethanone] | > 20 µM
CC(=O)N1C[C@H](C)C[C@H](c2ccc(C(F)(F)F)c3ncccc23)C1 (relative stereo) [Compound 10, cis-1-[3-Methyl-5-(8-trifluoromethyl-quinolin-5-yl)-piperidin-1-yl]-ethanone] | > 20 µM
C[C@@H]1C[C@@H](c2ccc(C(F)(F)F)c3ncccc23)CN(C(=O)CCn2cccn2)C1 (relative stereo) [Compound 13] | > 20 µM
C[C@@H]1C[C@H](c2ccc(C(F)(F)F)c3ncccc23)CN(C(=O)Cn2cccn2)C1 (relative stereo) [Compound 14] | > 20 µM
C[C@@H]1C[C@@H](c2ccc(C(F)(F)F)c3ncccc23)CN(C(=O)Cn2cccn2)C1 (relative stereo) [Compound 15] | > 20 µM
C[C@@H]1C[C@H](c2ccc(C(F)(F)F)c3ncccc23)CN(C(=O)CN2CCOCC2)C1 (relative stereo) [Compound 16] | > 20 µM
C[C@@H]1C[C@H](c2ccc(C#N)c3ncccc23)CN(C(=O)Cc2cccnc2)C1 (relative stereo) [Compound 20] | > 20 µM
C[C@@H]1C[C@H](c2ccc(C#N)c3ncccc23)CN(C(=O)CCc2cccnc2)C1 (relative stereo) [Compound 24] | > 20 µM
C[C@@H]1C[C@H](c2ccc(C#N)c3ncccc23)CN(C(=O)CC(F)(F)F)C1 (relative stereo) [Compound 26] | > 20 µM
C[C@@H]1C[C@H](c2ccc(C#N)c3ncccc23)CN(C(=O)CC2CC2)C1 (relative stereo) [Compound 28, Cis 5-[1-(2-Cyclopropyl-acetyl)-5-methyl-piperidin-3-yl]-quinoline-8-carbonitrile] | 1 to 20 µM
C[C@@H]1C[C@H](c2ccc(C#N)c3ncccc23)CN(C(=O)C2CN(C)C2)C1 (relative stereo) [Compound 31] | 1 to 20 µM
C[C@@H]1C[C@@H](c2ccc(C#N)c3ncccc23)CN(C(=O)C2CN(C)C2)C1 (relative stereo) [Compound 32] | 1 to 20 µM

Next, values leading:

IC50 | SMILES
1 to 20 µM | C[C@H]1C[C@@H](NC(=O)CC2CC2(F)F)C[C@@H](c2ccc(C#N)c3nccnc23)C1 (mixture of isomers) [Compound 156, N-[(cis-1,3,5)-3-(8-cyanoquinoxalin-5-yl)-5-methylcyclohexyl]-2-(2,2-difluorocyclopropyl)acetamide]
< 1 µM | C[C@@H]1C[C@H](c2ccc(C(F)(F)F)c3ncccc23)CN(C(=O)CC2CCN(C)CC2)C1 (racemic) [Compound 4, cis-2-(1-Methyl-piperidin-4-yl)-1-[3-methyl-5-(8-trifluoromethyl-quinolin-5-yl)-piperidin-1-yl]-ethanone]
< 1 µM | CC(C)N1CCC(CC(=O)N2C[C@H](C)C[C@H](c3ccc(C#N)c4ncccc34)C2)CC1 (racemic) [Compound 19]
< 1 µM | C[C@@H]1C[C@H](c2ccc(C#N)c3ncccc23)CN(C(=O)CN2CC3CCC2CN3)C1 (mixture of isomers) [Compound 116, 5-[(3R,5R)-1-(2-2,5-Diaza-bicyclo[2.2.2]oct-2-yl-acetyl)-5-methyl-piperidin-3-yl]-quinoline-8-carbonitrile]
< 1 µM | C[C@H]1C[C@@H](N)C[C@@H](c2ccc(C#N)c3nccnc23)C1 (racemic) [Compound 120, 8-((S,3R,5R)-3-amino-5-methylcyclohexyl) quinoxaline-5-carbonitrile]
< 1 µM | C[C@H]1C[C@@H](NC(=O)CC(C)(C)C)C[C@@H](c2ccc(C#N)c3nccnc23)C1 (racemic) [Compound 129, N-[(cis-1,3,5)-3-(8-cyanoquinoxalin-5-yl)-5-methylcyclohexyl]-3,3-dimethylbutanamide]
1 to 20 µM | C[C@H]1C[C@@H](NC(=O)CC(C)(C)C)C[C@H](c2ccc(C#N)c3nccnc23)C1 (racemic) [Compound 130, N-[(1,cis-3,trans-5,cis)-3-(8-cyanoquinoxalin-5-yl)-5-methylcyclohexyl]-3,3-dimethylbutanamide]
< 1 µM | C[C@H]1C[C@@H](NC(=O)CN(C)C)C[C@@H](c2ccc(C#N)c3nccnc23)C1 (racemic) [Compound 131, N-[(cis-1,3,5)-3-(8-cyanoquinoxalin-5-yl)-5-methylcyclohexyl]-2-(dimethylamino)acetamide]
1 to 20 µM | C[C@H]1C[C@@H](NC(=O)CN(C)C)C[C@H](c2ccc(C#N)c3nccnc23)C1 (racemic) [Compound 132, N-[(1,cis-3,trans-5,cis)-3-(8-cyanoquinoxalin-5-yl)-5-methylcyclohexyl]-2-(dimethylamino)acetamide]
1 to 20 µM | C[C@H]1C[C@@H](NC(=O)[C@@H](N)C(F)(F)F)C[C@@H](c2ccc(C#N)c3nccnc23)C1 (racemic) [Compound 143, (2R)-2-amino-N-((cis-1,3,5)-3-(8-cyanoquinoxalin-5-yl)-5-methylcyclohexyl)-3,3,3-trifluoropropanamide]
1 to 20 µM | C[C@H]1C[C@@H](NC(=O)[C@H](N)C(F)(F)F)C[C@@H](c2ccc(C#N)c3nccnc23)C1 (racemic) [Compound 144, (2S)-2-amino-N-((cis-1,3,5)-3-(8-cyanoquinoxalin-5-yl)-5-methylcyclohexyl)-3,3,3-trifluoropropanamide]
1 to 20 µM | C[C@H]1C[C@@H](NC(=O)[C@H](N)C(F)(F)F)C[C@H](c2ccc(C#N)c3nccnc23)C1 (racemic) [Compound 145, (2R)-2-amino-N-((1,cis-3cis-5,trans)-3-(8-cyanoquinoxalin-5-yl)-5-methylcyclohexyl)-3,3,3-trifluoropropanamide]
1 to 20 µM | C[C@H]1C[C@@H](NC(=O)[C@@H](N)C(F)(F)F)C[C@H](c2ccc(C#N)c3nccnc23)C1 (racemic) [Compound 146, (2S)-2-amino-N-((1,cis-3cis-5,trans)-3-(8-cyanoquinoxalin-5-yl)-5-methylcyclohexyl)-3,3,3-trifluoropropanamide]
< 1 µM | C[C@H]1C[C@@H](NC(=O)CN2CCCCC2)C[C@@H](c2ccc(C#N)c3nccnc23)C1 (racemic) [Compound 157, N-[(cis-1,3,5)-3-(8-cyanoquinoxalin-5-yl)-5-methylcyclohexyl]-2-(piperidin-1-yl)acetamide]
< 1 µM | C[C@H]1C[C@@H](NC(=O)CN2CCN(C)CC2)C[C@@H](c2ccc(C#N)c3nccnc23)C1 (racemic) [Compound 158, N-[(cis-1,3,5)-3-(8-cyanoquinoxalin-5-yl)-5-methylcyclohexyl]-2-(4-methylpiperazin-1-yl)acetamide]
< 1 µM | C[C@@H]1C[C@H](c2ccc(C#N)c3ncccc23)CN(C(=O)CN2CCN(C)CC2)C1 (relative stereo) [Compound 29]
< 1 µM | C[C@@H]1C[C@@H](c2ccc(C#N)c3ncccc23)CN(C(=O)CN2CCN(C)CC2)C1 (relative stereo) [Compound 30]
